# Results published in article PMC7125190, “Native/citrullinated LL37-specific T-cells help autoantibody production in Systemic Lupus Erythematosus” (Scientific Reports, 2020).
# Legend:
# Assay type in all cases: cell-based, human
# [1] = tested on: SLE/CLE CD4+ T-cell clones; assay: T-cell clone reactivity (BrdU, HLA-matched B-LCLs pulsed with peptide); settings: clones from one SLE and one CLE patient
# Protocol: PBMCs were purified, from EDTA-treated blood, on Ficoll-Hypaque (Pharmacia Fine Chemicals, Uppsala, Sweden) were incubated (10^5 cells/well) in 96-well-flat-bottom-microplates (BD) in T cell-medium (RPMI 1640, 10% heat-inactivated human serum, HS, Gibco), 2 mM L-glutamine, 10 U/mL penicillin, and 100 μg/mL streptomycin), with/without peptides. We performed assays on fresh cells, within 1-to-3 hours from collection, or on PBMCs frozen in 90% FCS-10%DMSO, whose viability we assessed by Trypan blue exclusion, at inverted microscope. Recovery of live cells was between 65 and 85 % of the frozen number. At day3 and 5, BrdU was added (1 μg/mL). BrdU-incorporation was detected by APC-labeled anti-BrdU antibody (BD Pharmingen), after surface staining by flow cytometry. Internal control for T-cell viability and proliferation was PHA treatment (2 μg/mL). SI for proliferation was calculated by dividing percent of BrdU-staining in the presence of each peptide used to stimulate cells by percent of BrdU-staining in the absence of peptide stimulation. SI for proliferation was considered positive when>3. This cut-off was obtained by calculating the mean+2DS [1.5 + 2 (0.6)] (of the stimulation indexes calculated as above) of the proliferation of HD. […]
# Assays were repeated twice with each patient. […] Ror-ɣt and Bcl-6 were measured by intracellular staining and flow cytometry, after 48 hours culture with LL37 or control antigen, and were analyzed on CD38highCD4 T-cells. […]
# PBMCs were stimulated (2x10^6 cells/mL) with LL37 for 7 days and re-stimulated (10 days) with LL37-pulsed (10 µg/mL) autologous-ɣ-irradiated-(30Gy)-PBMCs in T-cell medium in the presence of human/recombinant (hr)IL-2 (Boehringer-Mannheim, Indian, USA). T cell lines-specificity was analyzed by using peptide-pulsed (0.1-10 µg/mL) autologous-irradiated PBMCs (30Gy) or lymphoblastoid-cell-lines (B-LCLs) (150Gy, 33). […]
# analyzed by flow-cytometry (after staining by BrdU-detection kit, BD Pharmingen). […] Clones reactivity and HLA-restriction were analyzed using HLA-matched-homozigous B-LCLs, pulsed with […]
# CD4 T-cells = assay: Peptide-MHC-tetramer staining of PBMC after seven-day culture; settings: for peptide-MHC-tetramer staining in HLA-matched HD: HLA-matched HD PBMCs; for peptide-MHC-tetramer staining at remission: SLE2, SLE22 and CLE6 PBMCs at remission
# Protocol: Peptide-MHC-tetramer staining of T-cell lines/clones and blood T-cells
# Peptide-MHC-tetramers (Table S4) were from ProImmune, (UK), TC Metrix, (CH), Benaroya,
# (USA) and ImmunAware (Denmark). Staining was performed for 40 minutes at 37°C, followed by
# staining for CD4 (4°C, 20 minutes). Before flow cytometry-acquisition, cells were labelled with
# PercP-conjugated 7-AAD to exclude dead cells. […]
# [2] = tested on: CD4 T-cells in PBMC cultures; assay: TFH/Th17 marker expression by flow cytometry (CXCR5, Bcl-6, Ror-γt); settings: for Bcl-6 expression / Ror-ɣt expression: CD38hi T-cells, 48 hours; for Bcl-6 expression: SLE but not psoriasis; for Ror-ɣt expression: both SLE and psoriasis; for CXCR5 expression by proliferating T-cells: SLE (but not in psoriasis)
# Protocol: PBMCs were purified, from EDTA-treated blood, on Ficoll-Hypaque (Pharmacia Fine Chemicals, Uppsala, Sweden) were incubated (10^5 cells/well) in 96-well-flat-bottom-microplates (BD) in T cell-medium (RPMI 1640, 10% heat-inactivated human serum, HS, Gibco), 2 mM L-glutamine, 10 U/mL penicillin, and 100 μg/mL streptomycin), with/without peptides. We performed assays on fresh cells, within 1-to-3 hours from collection, or on PBMCs frozen in 90% FCS-10%DMSO, whose viability we assessed by Trypan blue exclusion, at inverted microscope. Recovery of live cells was between 65 and 85 % of the frozen number. At day3 and 5, BrdU was added (1 μg/mL). BrdU-incorporation was detected by APC-labeled anti-BrdU antibody (BD Pharmingen), after surface staining by flow cytometry. Internal control for T-cell viability and proliferation was PHA treatment (2 μg/mL). SI for proliferation was calculated by dividing percent of BrdU-staining in the presence of each peptide used to stimulate cells by percent of BrdU-staining in the absence of peptide stimulation. SI for proliferation was considered positive when>3. This cut-off was obtained by calculating the mean+2DS [1.5 + 2 (0.6)] (of the stimulation indexes calculated as above) of the proliferation of HD.
# Basal % of proliferation was set using, as reference, an isotype matched antibody staining (APC-isotype control and) and never exceed 5% of cell proliferation value (background proliferation).
# Assays were repeated twice with each patient. In rare cases in which background proliferation exceed antigen-specific proliferation the assay was repeated three times. Concomitant phenotype analysis of LL37-responder T-cells included staining for CD4, CD8, CXCR5, PD1, ICOS, CCR6. Ror-ɣt and Bcl-6 were measured by intracellular staining and flow cytometry, after 48 hours culture with LL37 or control antigen, and were analyzed on CD38highCD4 T-cells. […]
Substance,T-cell clone reactivity [1],peptide-MHC-tetramer staining in HLA-matched HD (CD4 T-cells; seven-day culture),peptide-MHC-tetramer staining at remission (CD4 T-cells),Bcl-6 expression [2],Ror-ɣt expression [2],CXCR5 expression by proliferating T-cells [2],"frequency of peptide-MHC-tetramer positive T-cells, cit-LL37 versus native-LL37 (CD4 T-cells; three patients (SLE2, SLE22, CLE6), seven-day culture)"
"LLGDFFRKSKEKIGKEFKRIVQRIKDFLRNLVPRTES [LL37, native LL37, antimicrobial peptide, 37 aa]",Some of the T-cell clones proliferated exclusively after stimulation with native LL37,did not stain significantly,not staining for native-LL37,could up-regulate Bcl-6,could upregulate Ror-ɣt expression,significant up-regulation,
"LLGDFFR(cit)KSKEKIGKEFKR(cit)IVQR(cit)IKDFLR(cit)NLVPR(cit)TES [cit-LL37, citrullinated LL37 (citrullinated at all five arginin positions)]",Other clones proliferated to both native LL37 and cit-LL37,did not stain significantly,still observed some staining upon stimulation with cit-LL37,could up-regulate Bcl-6,could upregulate Ror-ɣt expression,significant up-regulation,higher upon culture of PBMCs with cit-LL37 compared to native-LL37
